Experimental data taken from patent publication US10004701B2, “Methods and compositions for treating infection” (UNIVERSITY OF ROCHESTER, priority 2012, dated 2018).
Where a name gives a salt, the structure may show the parent alone. Read-outs that look alike come from different tables or passages of the source.

How the values were obtained:
Experiment in all cases: AK assay 384-well format, Prestwick library screening
[1] = tested on: E. cloacae; type: cell-based, Enterobacter cloacae; details: for fold induction at 50 µM: Enterobacter cloacae, 3 h
[2] = tested on: S. aureus strain USA300-0114; type: cell-based, Staphylococcus aureus; details: for fold induction at 50 µM: Staphylococcus aureus, USA300, 3 h
[3] = tested on: E. coli; type: cell-based, Escherichia coli; details: for fold induction at 50 µM: Escherichia coli, 3 h
[4] = tested on: E. faecium; type: cell-based, Enterococcus faecium; details: for fold induction at 50 µM: Enterococcus faecium, 3 h
[5] = tested on: A. baumannii strain 98-37-09; type: cell-based, Acinetobacter baumannii; details: for fold induction at 50 µM: Acinetobacter baumannii, 983709, 3 h
[6] = tested on: K. pneumoniae; type: cell-based, Klebsiella pneumoniae; details: for fold induction at 50 µM: Klebsiella pneumoniae, 3 h
[7] = tested on: P. aeruginosa; type: cell-based, Pseudomonas aeruginosa; details: for fold induction at 50 µM: Pseudomonas aeruginosa, 3 h
[8] = 50 μM final drug concentration, cutoff for positive-scoring molecules 3-fold increase, read-out: AK-based Prestwick Library Screening Results, E. cloacae (fold increase in extracellular AK activity)
[9] = 50 μM final drug concentration, cutoff for positive-scoring molecules 3-fold increase, read-out: AK-based Prestwick Library Screening Results, S. aureus (fold increase in extracellular AK activity)
[10] = 50 μM final drug concentration, cutoff for positive-scoring molecules 3-fold increase, read-out: AK-based Prestwick Library Screening Results, E. coli (fold increase in extracellular AK activity)
[11] = 50 μM final drug concentration, cutoff for positive-scoring molecules 3-fold increase, read-out: AK-based Prestwick Library Screening Results, E. faecium (fold increase in extracellular AK activity)
[12] = 50 μM final drug concentration, cutoff for positive-scoring molecules 3-fold increase, read-out: AK-based Prestwick Library Screening Results, A. baumannii (fold increase in extracellular AK activity)
[13] = 50 μM final drug concentration, cutoff for positive-scoring molecules 3-fold increase, read-out: AK-based Prestwick Library Screening Results, K. pneumoniae (fold increase in extracellular AK activity)
[14] = 50 μM final drug concentration, cutoff for positive-scoring molecules 3-fold increase, read-out: AK-based Prestwick Library Screening Results, P. aeruginosa (fold increase in extracellular AK activity)
[15] = 50 μM final drug concentration, planktonic, cutoff for positive 3-fold increase
[16] = 50 μM final drug concentration, 384-well format, cutoff for positive-scoring molecules 3-fold increase, read-out: AK-based Prestwick Library Screening Results, E. cloacae (increase in extracellular AK activity)
[17] = 50 μM final drug concentration, 384-well format, cutoff for positive-scoring molecules 3-fold increase, read-out: AK-based Prestwick Library Screening Results, S. aureus (increase in extracellular AK activity)
[18] = 50 μM final drug concentration, 384-well format, cutoff for positive-scoring molecules 3-fold increase, read-out: AK-based Prestwick Library Screening Results, E. coli (increase in extracellular AK activity)
[19] = 50 μM final drug concentration, 384-well format, cutoff for positive-scoring molecules 3-fold increase, read-out: AK-based Prestwick Library Screening Results, E. faecium (increase in extracellular AK activity)
[20] = 50 μM final drug concentration, 384-well format, cutoff for positive-scoring molecules 3-fold increase, read-out: AK-based Prestwick Library Screening Results, A. baumannii (increase in extracellular AK activity)
[21] = 50 μM final drug concentration, 384-well format, cutoff for positive-scoring molecules 3-fold increase, read-out: AK-based Prestwick Library Screening Results, K. pneumoniae (increase in extracellular AK activity)
[22] = 50 μM final drug concentration, 384-well format, cutoff for positive-scoring molecules 3-fold increase, read-out: AK-based Prestwick Library Screening Results, P. aeruginosa (increase in extracellular AK activity)

`Oc1c(I)cc(Cl)c2cccnc12` [Clioquinol] showed a fold induction at 50 µM ([1]; 50 μM final drug concentration, planktonic, cutoff for positive-scoring molecules 3-fold increase, read-out: AK-based Prestwick Library Screening Results, E. cloacae (fold increase in extracellular AK activity)) of 0.5, a fold induction at 50 µM ([2]; 50 μM final drug concentration, planktonic, cutoff for positive-scoring molecules 3-fold increase, read-out: AK-based Prestwick Library Screening Results, S. aureus (fold increase in extracellular AK activity)) of 0.2 and a fold induction at 50 µM ([3]; 50 μM final drug concentration, planktonic, cutoff for positive-scoring molecules 3-fold increase, read-out: AK-based Prestwick Library Screening Results, E. coli (fold increase in extracellular AK activity)) of 0.5. For the same compound, the fold induction at 50 µM ([4]; 50 μM final drug concentration, planktonic, cutoff for positive-scoring molecules 3-fold increase, read-out: AK-based Prestwick Library Screening Results, E. faecium (fold increase in extracellular AK activity)) was 0.9, the fold induction at 50 µM ([5]; 50 μM final drug concentration, planktonic, cutoff for positive-scoring molecules 3-fold increase, read-out: AK-based Prestwick Library Screening Results, A. baumannii (fold increase in extracellular AK activity)) was 1.1 and the fold induction at 50 µM ([6]; 50 μM final drug concentration, planktonic, cutoff for positive-scoring molecules 3-fold increase, read-out: AK-based Prestwick Library Screening Results, K. pneumoniae (fold increase in extracellular AK activity)) was 0.6. For the same compound, the fold induction at 50 µM ([7]; 50 μM final drug concentration, planktonic, cutoff for positive-scoring molecules 3-fold increase, read-out: AK-based Prestwick Library Screening Results, P. aeruginosa (fold increase in extracellular AK activity)) was 0.4.

With `CCC(=O)O[C@]1(C(=O)CCl)[C@@H](C)C[C@H]2[C@@H]3CCC4=CC(=O)C=C[C@]4(C)[C@@]3(F)[C@@H](O)C[C@@]21C` [Clobetasol propionate] the fold induction at 50 µM [1, 8] was 1.3, the fold induction at 50 µM [2, 9] was 0.9 and the fold induction at 50 µM [3, 10] was 1.2. It also gave a fold induction at 50 µM [4, 11] of 1, a fold induction at 50 µM [5, 12] of 1.3 and a fold induction at 50 µM [6, 13] of 1. It also gave a fold induction at 50 µM [7, 14] of 1.1.

`C[C@@H]1C[C@H]2[C@@H]3C[C@H](F)C4=CC(=O)C=C[C@]4(C)[C@@]3(Cl)[C@@H](O)C[C@]2(C)[C@H]1C(=O)COC(=O)C(C)(C)C` [Clocortolone pivalate] showed a fold induction at 50 µM ([1]; planktonic E. cloacae, 50 μM final drug concentration, positive cutoff 3-fold increase, read-out: AK-based Prestwick library screening result, E. cloacae (fold increase in extracellular AK activity)) of 1.6, a fold induction at 50 µM ([2]; planktonic S. aureus, 50 μM final drug concentration, positive cutoff 3-fold increase, read-out: AK-based Prestwick library screening result, S. aureus (fold increase in extracellular AK activity)) of 1.1 and a fold induction at 50 µM ([3]; planktonic E. coli, 50 μM final drug concentration, positive cutoff 3-fold increase, read-out: AK-based Prestwick library screening result, E. coli (fold increase in extracellular AK activity)) of 1. For the same compound, the fold induction at 50 µM ([4]; planktonic E. faecium, 50 μM final drug concentration, positive cutoff 3-fold increase, read-out: AK-based Prestwick library screening result, E. faecium (fold increase in extracellular AK activity)) was 1.1, the fold induction at 50 µM ([5]; planktonic A. baumannii, 50 μM final drug concentration, positive cutoff 3-fold increase, read-out: AK-based Prestwick library screening result, A. baumannii (fold increase in extracellular AK activity)) was 1.2 and the fold induction at 50 µM ([6]; planktonic K. pneumoniae, 50 μM final drug concentration, positive cutoff 3-fold increase, read-out: AK-based Prestwick library screening result, K. pneumoniae (fold increase in extracellular AK activity)) was 1. The fold induction at 50 µM ([7]; planktonic P. aeruginosa, 50 μM final drug concentration, positive cutoff 3-fold increase, read-out: AK-based Prestwick library screening result, P. aeruginosa (fold increase in extracellular AK activity)) was 1.

With `CC(C)/N=c1\cc2n(-c3ccc(Cl)cc3)c3ccccc3nc-2cc1Nc1ccc(Cl)cc1` [Clofazimine, clofazimine, reference compound] the fold induction at 50 µM ([1]; 50 μM final drug concentration, planktonic, cutoff for positive 3-fold increase, read-out: AK-based Prestwick Library Screening Results, E. cloacae (fold increase in extracellular AK activity)) was 1.8, the “activity in AK Prestwick screen” value ([2]; S. aureus USA300-0114, 50 μM, cutoff 3-fold increase in AK) was “active” and the fold induction at 50 µM ([2]; 50 μM final drug concentration, planktonic, cutoff for positive 3-fold increase, read-out: AK-based Prestwick Library Screening Results, S. aureus (fold increase in extracellular AK activity)) was 4.6. For the same compound, the fold induction at 50 µM ([3]; 50 μM final drug concentration, planktonic, cutoff for positive 3-fold increase, read-out: AK-based Prestwick Library Screening Results, E. coli (fold increase in extracellular AK activity)) was 1.2, the fold induction at 50 µM ([4]; 50 μM final drug concentration, planktonic, cutoff for positive 3-fold increase, read-out: AK-based Prestwick Library Screening Results, E. faecium (fold increase in extracellular AK activity)) was 1 and the fold induction at 50 µM ([5]; 50 μM final drug concentration, planktonic, cutoff for positive 3-fold increase, read-out: AK-based Prestwick Library Screening Results, A. baumannii (fold increase in extracellular AK activity)) was 5. For the same compound, the fold induction at 50 µM ([6]; 50 μM final drug concentration, planktonic, cutoff for positive 3-fold increase, read-out: AK-based Prestwick Library Screening Results, K. pneumoniae (fold increase in extracellular AK activity)) was 1.1 and the fold induction at 50 µM ([7]; 50 μM final drug concentration, planktonic, cutoff for positive 3-fold increase, read-out: AK-based Prestwick Library Screening Results, P. aeruginosa (fold increase in extracellular AK activity)) was 1.

In the case of `CC(C)(Oc1ccc(Cl)cc1)C(=O)O` [Clofibric acid], the fold induction at 50 µM [1, 8] was 1.5, the fold induction at 50 µM [2, 9] was 1.4 and the fold induction at 50 µM [3, 10] was 1.2. It also gave a fold induction at 50 µM [4, 11] of 1.1, a fold induction at 50 µM [5, 12] of 1.3 and a fold induction at 50 µM [6, 13] of 1.1. For the same compound, the fold induction at 50 µM [7, 14] was 1.2.

With `CCN(CC)CCOc1ccc(C(=C(Cl)c2ccccc2)c2ccccc2)cc1.O=C(O)CC(O)(CC(=O)O)C(=O)O` [Clomiphene citrate (Z,E)] the “AK-based Prestwick Library Screening Results, E. cloacae (fold increase in extracellular AK activity)” value [1, 15] was 1.9, the “AK-based Prestwick Library Screening Results, S. aureus (fold increase in extracellular AK activity)” value [2, 15] was 2.0 and the “AK-based Prestwick Library Screening Results, E. coli (fold increase in extracellular AK activity)” value [3, 15] was 1.8. The “AK-based Prestwick Library Screening Results, E. faecium (fold increase in extracellular AK activity)” value [4, 15] was 4.4, the “AK-based Prestwick Library Screening Results, A. baumannii (fold increase in extracellular AK activity)” value [5, 15] was 5.4 and the “AK-based Prestwick Library Screening Results, K. pneumoniae (fold increase in extracellular AK activity)” value [6, 15] was 1.6. For the same compound, the “AK-based Prestwick Library Screening Results, P. aeruginosa (fold increase in extracellular AK activity)” value [7, 15] was 1.4.

Work on `CN(C)CCCN1c2ccccc2CCc2ccc(Cl)cc21` [Clomipramine hydrochloride] yielded a fold induction at 50 µM [1, 16] of 1, a fold induction at 50 µM [2, 17] of 0.8 and a fold induction at 50 µM [3, 18] of 1.1. It also gave a fold induction at 50 µM [4, 19] of 1.1, a fold induction at 50 µM [5, 20] of 1 and a fold induction at 50 µM [6, 21] of 0.7. For the same compound, the fold induction at 50 µM [7, 22] was 0.9.

`Clc1cccc(Cl)c1N=C1NCCN1` [Clonidine hydrochloride] showed a fold induction at 50 µM [1, 16] of 0.6, a fold induction at 50 µM [2, 17] of 0.5 and a fold induction at 50 µM [3, 18] of 0.5. For the same compound, the fold induction at 50 µM [4, 19] was 0.9, the fold induction at 50 µM [5, 20] was 0.6 and the fold induction at 50 µM [6, 21] was 0.5. For the same compound, the fold induction at 50 µM [7, 22] was 0.5.

In the case of `Cc1c(Cl)cccc1Nc1ncccc1C(=O)O.NCCCC[C@H](N)C(=O)O` [Clonixin Lysinate], the “AK-based Prestwick library screening result, E. cloacae (fold increase in extracellular AK activity)” value [1] was 1.5, the “AK-based Prestwick library screening result, S. aureus (fold increase in extracellular AK activity)” value [2] was 1.2 and the “AK-based Prestwick library screening result, E. coli (fold increase in extracellular AK activity)” value [3] was 1.0. The “AK-based Prestwick library screening result, E. faecium (fold increase in extracellular AK activity)” value [4] was 0.9, the “AK-based Prestwick library screening result, A. baumannii (fold increase in extracellular AK activity)” value [5] was 1.4 and the “AK-based Prestwick library screening result, K. pneumoniae (fold increase in extracellular AK activity)” value [6] was 1.1. For the same compound, the “AK-based Prestwick library screening result, P. aeruginosa (fold increase in extracellular AK activity)” value [7] was 1.0.
